According to patent publication US9855220B2, “Methods of treating pancreatic cancer” (priority 2013, dated 2018):

Experiments:
[1] = system: patients with locally advanced pancreatic cancer; details: cited from earlier work
[2] = system: patients with metastatic adenocarcinoma of the pancreas; assay: MPACT phase 3 study: overall survival; type: in vivo, human; details: for median overall survival: intent-to-treat population; for Median OS 95% CI (months): intent-to-treat
Text: (§1) Patients who had not experienced disease progression were followed with regularly scheduled spiral CT/MRI scans every 8 weeks in both arms. Patients were followed for survival until death or study closure.
The 1:1 randomization was stratified by: (1) Karnofsky performance status (PS) (70-80 versus 90-100); (2) Region (Australia, North America, Eastern/Western Europe); (3) Presence of liver metastasis (Yes vs. No).
(§2) The primary efficacy endpoint was overall survival (OS). Secondary efficacy endpoints were progression-free survival (PFS) (measured by blinded, independent radiology assessments done at 8 weeks), objective tumor response according to Response Evaluation Criteria in Solid Tumors (RECIST v. 1.0) based on Spiral computed tomography (CT) scans/magnetic resonance imaging (MRI). Other endpoints included were progression-free survival and objective response rate (ORR) by investigator review, disease control rate (DCR), time to failure (TTF), and safety/tolerability by National Cancer Institute Common Terminology Criteria for Adverse Events v. 3.0 (NCI CTCAE).
(§3) The sample size was increased prior to the interim analysis to increase the power from 80% to 90% (842 patients, 608 events) to detect a hazard ratio (HR) of 0.769 (2-sided α:0.049). 1 interim survival analysis was planned for futility. The intent-to-treat (ITT) population was evaluated for efficacy, the treated population for safety. Treatment differences in overall survival and progression-free survival were tested using stratified log-rank; objective response rates were tested using the chi-squared test.

[3] = system: patients with metastatic adenocarcinoma of the pancreas; assay: MPACT phase 3 study: progression-free survival (independent radiological review, investigator review); type: in vivo, human; details: for Progression-free rate (%): independent radiological review
Experimental: (§4) The primary efficacy endpoint was overall survival (OS). […] 3.0 (NCI CTCAE).
(§5) 1 interim survival analysis was planned for futility.
(§6) Study endpoints were determined by analyzing the following criteria: (1) changes in serum CA 19-9 levels; (2) changes in plasma SPARC (secreted protein, acidic and rich in cysteine) levels; (3) time and duration of response (using RECIST v. 1.0); (4) disease control rate based on objective response or stable disease ≧16 weeks; (5) time to treatment failure; (6) progression-free survival and overall response rate by investigator; and (7) tumor response by PET scans using EORTC criteria and blinded radiology assessments. When assessing study endpoints, researchers examined correlations between objective tumor response as determined by CT and PET scans, molecular marker expression and efficacy, and objective tumor response as determined by PET, progression-free survival, CA 19-9 levels, SPARC levels and overall survival.

[4] = system: patients with metastatic adenocarcinoma of the pancreas; assay: MPACT phase 3 study: objective tumor response and disease control rate (RECIST v. 1.0); type: in vivo, human
Experimental: as §4, §5, §6

[5] = system: patients with metastatic adenocarcinoma of the pancreas; assay: MPACT phase 3 study: time to treatment failure; type: in vivo, human
Experimental: as §4, §6

[6] = system: patients with metastatic adenocarcinoma of the pancreas
Text: as §1, §2, §3

[7] = system: patients with metastatic adenocarcinoma of the pancreas; type: in vivo
Text: as §1

pancreatic cancer = details: in vivo; cited from earlier work
[8] = best response by blinded assessment
[9] = best response by blinded assessment / independent review
[10] = independent radiological review
[11] = treated population, N = 421 vs N = 402
[12] = number of patients (% of arm), N = 431 vs N = 430

O=c1[nH]cc(F)c(=O)[nH]1 [5-FU, 5-fluororuracil]
median overall survival [1]: 4.2 months | median time to disease progression [1]: 0.9 months

Nc1ccn([C@@H]2O[C@H](CO)[C@@H](O)C2(F)F)c(=O)n1 [Gemcitabine, gemcitabine]
Patients Died, % ([2]; ITT): (83%) | Median OS, sensitivity analysis ([2]; censor at time of 2nd line therapy): 6.8 Months | median overall survival [2]: 6.7 (6.01-7.23) months | median overall survival ([2]; listed as gemcitabine): 6.7 months | Median OS 95% CI (months) ([2]; subgroup Geographic Region: Eastern Europe): 5.9 (4.67, 7.46) months | Median OS 95% CI (months) ([2]; subgroup Geographic Region: North America): 6.8 (6.01, 7.52) months | Median OS 95% CI (months) ([2]; subgroup Geographic Region: Western Europe): 6.9 (5.09, —)^ months | Median OS 95% CI (months) ([2]; subgroup Pancreatic Cancer Primary Location: Head): 6.5 (5.55, 7.29) months | Median OS 95% CI (months) ([2]; subgroup Pancreatic Cancer Primary Location: Other): 6.9 (5.98, 7.52) months | % survival ([2]; time point 6 month): 55% | % survival ([2]; time point 9 month): 36% | % survival ([2]; time point 12 month (1-year survival rate)): 22% | % survival ([2]; time point 18 month): 9% | % survival ([2]; time point 24 month (2-year survival rate)): 4% | N/Events, PFS by independent radiological review ([3]; ITT): 430/265 | Median Progression-Free Survival by independent radiological review ([3]; ITT population): 3.7 months | Progression-free rate (%) ([3]; at 6 month): 25% | Progression-free rate (%) ([3]; at 9 month): 14% | Progression-free rate (%) ([3]; at 12 month): 9% | Progression-free rate (%) ([3]; at 15 month): 9% | Median Progression-Free Survival by investigator review ([3]; in vivo): 3.5 months | N/Events, PFS by investigator review ([3]; in vivo): 430/348 | Not evaluable, % [4, 8]: 39% | Progressive Disease, % [4, 8]: 26% | Stable Disease, % [4, 8]: 28% | Complete Response, % [4, 9]: 0% | Partial Response, % [4, 9]: 7% | ORR, blinded (independent radiological) assessment ([4]; confirmed complete or partial response, ITT): 7% | ORR, investigator assessment ([4]; in vivo): 8% | Stable Disease ≧16 weeks, % ([4]; independent review): 26% | DCR (disease control rate) by independent review ([4]; objective response or stable disease ≧16 weeks): 33% | Median TTF [5, 10]: 3.6 months | Patients with Treatment Failure, % [5, 10]: 94% | Patients Censored, % ([5]; time to treatment failure analysis): 6% | Febrile Neutropenia (any grade), % ([6]; human, in vivo): 1% | Grade ≧3 Anemia, % ([6]; human, in vivo): 12% | Grade ≧3 Diarrhea, % ([6]; human, in vivo): 2% | Grade ≧3 Fatigue, % ([6]; human, in vivo): 7% | Grade ≧3 Leukopenia, % ([6]; human, in vivo): 16% | Grade ≧3 Neuropathy, Time to Improvement by 1 grade, median ([6]; human, in vivo): 29 days | Grade ≧3 Neuropathy, Time to Onset, median ([6]; human, in vivo): 113 days | Grade ≧3 Neutropenia, % ([6]; human, in vivo): 27% | Grade ≧3 Peripheral neuropathy, % ([6]; human, in vivo): <1% | Grade ≧3 Thrombocytopenia, % ([6]; human, in vivo): 9% | Myelosuppression: ANC, NCI CTCAE Grade 3 ([6]; human, in vivo): 82 (21) n (%) | Myelosuppression: ANC, NCI CTCAE Grade 4 ([6]; human, in vivo): 21 (5) n (%) | Myelosuppression: Hemoglobin, NCI CTCAE Grade 3 ([6]; human, in vivo): 42 (11) n (%) | Myelosuppression: Hemoglobin, NCI CTCAE Grade 4 ([6]; human, in vivo): 6 (2) n (%) | Myelosuppression: Platelet Count, NCI CTCAE Grade 3 ([6]; human, in vivo): 28 (7) n (%) | Myelosuppression: Platelet Count, NCI CTCAE Grade 4 ([6]; human, in vivo): 8 (2) n (%) | Subjects with at least one AE with Action of Study Drug Permanently Discontinued ([6]; human, in vivo): 95 (24%) n (%) | Treatment Emergent AEs Resulting in Treatment Discontinuation: Blood & Lymphatic ([6]; human, in vivo): 16 (4%) n (%) | Treatment Emergent AEs Resulting in Treatment Discontinuation: Gastrointestinal disorders ([6]; human, in vivo): 22 (5%) n (%) | Treatment Emergent AEs Resulting in Treatment Discontinuation: General Disorders/Administration Site Condition ([6]; human, in vivo): 18 (4%) n (%) | Treatment Emergent AEs Resulting in Treatment Discontinuation: Infections and infestations ([6]; human, in vivo): 11 (3%) n (%) | Treatment Emergent AEs Resulting in Treatment Discontinuation: Nervous System ([6]; human, in vivo): 7 (2%) n (%) | Treatment Emergent AEs Resulting in Treatment Discontinuation: Respiratory, Thoracic and mediastinal disorders ([6]; human, in vivo): 15 (4%) n (%) | Treatment-Emergent Grade 3 or Higher AE: Abdominal pain ([6]; human, in vivo): 32 (8%) | Treatment-Emergent Grade 3 or Higher AE: Anemia ([6]; human, in vivo): 32 (8%) | Treatment-Emergent Grade 3 or Higher AE: Asthenia ([6]; human, in vivo): 17 (4%) | Treatment-Emergent Grade 3 or Higher AE: Dehydration ([6]; human, in vivo): 10 (2%) | Treatment-Emergent Grade 3 or Higher AE: Diarrhea ([6]; human, in vivo): 6 (1%) | Treatment-Emergent Grade 3 or Higher AE: Fatigue ([6]; human, in vivo): 37 (9%) | Treatment-Emergent Grade 3 or Higher AE: Leukopenia ([6]; human, in vivo): 15 (4%) | Treatment-Emergent Grade 3 or Higher AE: Nausea ([6]; human, in vivo): 14 (3%) | Treatment-Emergent Grade 3 or Higher AE: Neutropenia ([6]; human, in vivo): 85 (21%) | Treatment-Emergent Grade 3 or Higher AE: Peripheral neuropathy ([6]; human, in vivo): 3 (1%) | Treatment-Emergent Grade 3 or Higher AE: Pulmonary Embolism ([6]; human, in vivo): 26 (6%) | Treatment-Emergent Grade 3 or Higher AE: Thrombocytopenia ([6]; human, in vivo): 33 (8%) | Treatment-Emergent Grade 3 or Higher AE: Vomiting ([6]; human, in vivo): 15 (4%) | Pt with at least 1 AE leading to death, % ([6]; treated population): 4% | Subject with at Least 1 Treatment Related AE with Outcome of Death [6, 11]: 18 (4%) n (%) | Treatment Emergent AEs with Outcome of Death: Cardiac Disorders [6, 11]: 3 (1%) n (%) | Treatment Emergent AEs with Outcome of Death: Gastrointestinal disorders [6, 11]: 3 (1%) n (%) | Treatment Emergent AEs with Outcome of Death: General disorders and administration site conditions [6, 11]: 3 (1%) n (%) | Treatment Emergent AEs with Outcome of Death: Hepatobiliary disorders [6, 11]: 1 (<1%) n (%) | Treatment Emergent AEs with Outcome of Death: Infections and infestations [6, 11]: 3 (1%) n (%) | Treatment Emergent AEs with Outcome of Death: Neoplasm Progression [6, 11]: 2 (<1%) n (%) | Treatment Emergent AEs with Outcome of Death: Nervous system disorders [6, 11]: 2 (<1%) n (%) | Treatment Emergent AEs with Outcome of Death: Renal and urinary disorders [6, 11]: 1 (<1%) n (%) | Treatment Emergent AEs with Outcome of Death: Respiratory, thoracic and mediastinal disorders [6, 11]: 3 (1%) n (%) | Patients with ≧1 Dose Reduction, %: gemcitabine ([7]; gemcitabine component): 33% | Reason for Therapy Discontinuation: Adverse Events [7, 12]: 73 (17%) | Reason for Therapy Discontinuation: Adverse Events Related to Study Drug [7, 12]: 29 (7%) | Reason for Therapy Discontinuation: Progressive Disease [7, 12]: 245 (57%) | median overall survival [1]: 5.7 months | median time to disease progression [1]: 2.1 months | median overall survival (pancreatic cancer): 6.0 months | median progression free survival (pancreatic cancer): 3.5 months
